Experimental findings from patent US20090326633A1, “CONTROLLED RELEASE ENDOPROSTHETIC DEVICE” (BOEHRINGER INGELHEIM PHARMA GMBH & CO. KG, priority 2001, published 2009) are described below.

The subject of this assay is muscle cells. The experiment in a line: Cell proliferation ELISA, BrdU incorporation into DNA (inhibition of DNA synthesis). Format: cell-based. Particulars: stents loaded with dipyramidole. An excerpt: Incorporation of BrdU instead of thymidine into the DNA, measurement with anti-BrdU-POD antibody (Cell proliferation ELISA, BrdU; obtained from Roche Diagnostics, Mannheim, Germany)
The following results have been obtained using this test with the stents loaded with dipyramidole according to the present invention: […]

`OCCN(CCO)c1nc(N2CCCCC2)c2nc(N(CCO)CCO)nc(N3CCCCC3)c2n1` [dipyridamole, 2,6-bis(diethanolamino)-4,8-dipiperidino-pyrimido[5,4-d]pyrimidine]: the IC50 is 0.1 to 0.3 µM (muscle cells stimulated with PDGF-BB), 1 to 3 µM (muscle cells without stimulation) and 4 to 10 µM (with freshly prepared medium).

What is called IC50 is the concentration at which inhibition is half-maximal.
